# According to patent US20240279236A1, “COMPOUNDS AND METHODS OF TREATING TUBERCULOSIS” (Fimbrion Therapeutics, Inc., priority 2021, published 2024):
# Test system: WT Mtb Erdman strain
# Experiment: Microplate Alamar Blue Assay (MABA), Mtb growth inhibition
# Format: cell-based, Mycobacterium tuberculosis
# Conditions: Mycobacterium tuberculosis, ERDMAN, 168 h, Middlebrook 7H9 media, 7 days at 37° C. in 5% CO2
row,SMILES,IC50 [nM]
1,"CCCCSc1nc(N[C@@H]2C[C@H]2c2ccc(F)c(F)c2)c2cc(C)sc2n1 [Example 87, 2-(butylthio)-N-((1R,2S)-2-(3,4-difluorophenyl)cyclopropyl)-6-methylthieno[2,3-d]pyrimidin-4-amine]",1500
2,"Cc1cc2c(N[C@@H]3C[C@H]3c3ccc(F)c(F)c3)nc(-c3ccco3)nc2s1 [Example 88, N-((1R,2S)-2-(3,4-difluorophenyl)cyclopropyl)-2-(furan-2-yl)-6-methylthieno[2,3-d]pyrimidin-4-amine]",2200
3,"Cc1cccc(-c2nc(N[C@@H]3C[C@H]3c3ccc(F)c(F)c3)c3cc(C)sc3n2)n1 [Example 89, N-((1R,2S)-2-(3,4-difluorophenyl)cyclopropyl)-6-methyl-2-(6-methylpyridin-2-yl)thieno[2,3-d]pyrimidin-4-amine]",> 10000
4,"Cc1cc2c(NCCCc3ccccc3)nc(-c3ccc(Cl)cc3)nc2s1 [Example 90, 2-(4-chlorophenyl)-6-methyl-N-(3-phenylpropyl)thieno [2,3-d]pyrimidin-4-amine]",2000
5,"Cc1cc2c(NCCCc3ccccc3)nc(-c3cccc(Cl)c3)nc2s1 [Example 91, 2-(3-chlorophenyl)-6-methyl-N-(3-phenylpropyl)thieno [2,3-d]pyrimidin-4-amine]",5900
6,"Cc1cc2c(NCCCc3ccccc3)nc(-c3ccc(N(C)C)cc3)nc2s1 [Example 92, 2-(4-(dimethylamino)phenyl)-6-methyl-N-(3-phenylpropyl)thieno [2,3-d]pyrimidin-4-amine]",2700
7,"Cc1cc2c(NCCCc3ccccc3)nc(C3CCCC3)nc2s1 [Example 94, 2-cyclopentyl-6-methyl-N-(3-phenylpropyl)thieno [2,3-d]pyrimidin-4-amine]",930
8,"Cc1cc2c(NCCCc3ccccc3)nc(C3CCCCC3)nc2s1 [Example 95, 2-cyclohexyl-6-methyl-N-(3- |phenylpropyl)thieno [2,3-d]pyrimidin-4-amine]",> 10000
9,"Cc1cc2c(NCCCc3ccccc3)nc(C(N)=O)nc2s1 [Example 96, 6-methyl-4-((3-phenylpropyl)amino) thieno[2,3-d]pyrimidine-2-carboxamide]",130
10,"Cc1cc2c(NCCCc3ccccc3)nc(CC3CC3)nc2s1 [Example 97, 2-(cyclopropyLMethyl)-6-methyl-N-(3. phenylpropyl)thieno [2,3-d]pyrimidin-4-amine]",360
11,"COC(=O)c1nc(NCCCc2ccccc2)c2cc(C)sc2n1 [Example 98, methyl 6-methyl-4-((3-phenylpropyl)amino) thieno[2,3-d]pyrimidine-2-carboxylate]",> 10000
12,"CCc1nc(NCCCc2ccccc2)c2cc(C(F)(F)F)sc2n1 [Example 99, 2-ethyl-N-(3-phenylpropyl)-6-(trifluoromethyl)thieno [2,3-d]pyrimidin-4-amine]",5700
13,"Cc1cc2c(NCCCc3ccccc3)nc(SC(C)C)nc2s1 [Example 100, 2-(isopropylthio)-6-methyl-N-(3-phenylpropyl)thieno [2,3-d]pyrimidin-4-amine]",3200
14,"Cc1cc2c(NCCCc3ccccc3)nc(-c3ccsc3)nc2s1 [Example 101, 6-methyl-N-(3-phenylpropyl)-2-(thiophen-3-yl)thieno[2,3-d]pyrimidin-4-amine]",490
15,"Cc1cc2c(NCCCc3ccccc3)nc(-c3ccoc3)nc2s1 [Example 102, 2-(furan-3-yl)-6-methyl-N-(3-phenylpropyl)thieno [2,3-d]pyrimidin-4-amine]",27
16,"COc1ccc(CCCNc2nc(SC)nc3sc(C)cc23)cc1 [Example 103, N-(3-(4-methoxyphenyl)propyl)-6-methyl-2-(methylthio)thieno[2,3-d]pyrimidin-4-amine]",22
17,"Cc1cc2c(NCCCc3ccccc3)nc(-c3cccnn3)nc2s1 [Example 104, 6-methyl-N-(3-phenylpropyl)-2-(pyridazin-3-yl)thieno[2,3-d]pyrimidin-4-amine]",2000
18,"Cc1cc2c(NCCCc3ccccc3)nc(-c3cnccn3)nc2s1 [Example 105, 6-methyl-N-(3-phenylpropyl)-2-(pyrazin-2-yl)thieno[2,3-d]pyrimidin-4-amine]",2000
19,"Cc1cc2c(NCCCc3ccccc3)nc(C3CCC3)nc2s1 [Example 106, 2-cyclobutyl-6-methyl-N-(3-phenylpropyl)thieno [2,3-d]pyrimidin-4-amine]",490
20,"Cc1cc2c(N[C@@H]3C[C@H]3c3ccc(F)c(F)c3)nc(C(N)=O)nc2s1 [Example 107, 4-(((1R,2S)-2-(3,4-difluorophenyl)cyclopropyl)amino)-6-methylthieno[2,3-d]pyrimidine-2-carboxamide]",> 6400
21,"Cc1cc2c(NCCCc3ccccc3)nc(CN3CCCC3)nc2s1 [Example 108, 6-methyl-N-(3-phenylpropyl)-2-(pyrrolidin-1-yLM ethyl)thieno[2,3-d]pyrimidin-4-amine]",> 7800
22,"Cc1cc2c(NCCCc3ccccc3)nc(CN(C)C)nc2s1 [Example 109, 2-((dimethylamino)methyl)-6-methyl-N-(3-phenylpropyl)thieno [2,3-d]pyrimidin-4-amine]",> 10000

row,SMILES,IC50 [nM]
1,"Cc1cc2c(NCCCc3ccccc3)nc(-c3ccon3)nc2s1 [Example 110, 2-(isoxazol-3-yl)-6-methyl-N-(3-phenylpropyl)thieno [2,3-d]pyrimidin-4-amine]",55
2,"Cc1cc(-c2nc(NCCCc3ccccc3)c3cc(C)sc3n2)no1 [Example 111, 6-methyl-2-(5-methylisoxazol-3-yl)-N-(3-phenylpropyl)thieno [2,3-d]pyrimidin-4-amin]",210
3,"Cc1cc2c(NCCCc3ccccc3)nc(-c3cc[nH]n3)nc2s1 [Example 112, 6-methyl-N-(3-phenylpropyl)-2-(1H-pyrazol-3-yl)thieno[2,3-d]pyrimidin-4-amine]",2800
4,Cc1cc2c(NCCCc3ccccc3)nc(-c3ccco3)nc2s1 [Example 113],800
5,"Cc1cc2c(N[C@@H]3C[C@H]3c3ccc(F)c(F)c3)nc(-c3ccoc3)nc2s1 [Example 114, N-((1R,2S)-2-(3,4-difluorophenyl)cyclopropyl)-2-(furan-3-yl)-6-methylthieno[2,3-d]pyrimidin-4-amine]",620
6,"Cc1cc2c(N[C@@H]3C[C@H]3c3ccc(F)c(F)c3)nc(C3CCC3)nc2s1 [Example 115, 2-cyclobutyl-N-((1R,2S)-2-(3,4-difluorophenyl)cyclopropyl)-6-methylthieno[2,3-d]pyrimidin-4-amine]",640
7,"COC(C)(C)c1nc(NCCCc2ccccc2)c2cc(C)sc2n1 [Example 116, 2-(2-methoxypropan-2-yl)-6-methyl-N-(3-phenylpropyl)thieno [2,3-d]pyrimidin-4-amine]",> 10000
8,"COC(=O)c1nc(NCCCc2ccc(OC(F)(F)F)cc2)c2cc(C)sc2n1 [Example 117, methyl 6-methyl-4-((3-(4-(trifluoromethoxy)phenyl)propyl)amino) thieno[2,3-d]pyrimidine-2-carboxylate]",> 7700
9,"COc1ccc(CCCNc2nc(-c3ccoc3)nc3sc(C)cc23)cc1 [Example 118, 2-(furan-3-yl)-N-(3-(4-methoxyphenyl)propyl)-6-methylthieno[2,3-d]pyrimidin-4-amine]",82
10,"Cc1cc2c(NCCCc3ccccc3)nc(-c3cnsc3)nc2s1 [Example 119, 2-(isothiazol-4-yl)-6-methyl-N-(3-phenylpropyl)thieno [2,3-d]pyrimidin-4-amine]",560
11,"Cc1cc2c(NCCCc3ccccc3)nc(C3CCOC3)nc2s1 (stereo not shown) [Example 120, 6-methyl-N-(3-phenylpropyl)-2-(tetrahydrofuran-3-yl)thieno[2,3-d]pyrimidin-4-amine]",3000
12,"Cc1cc2c(NCCCc3ccc(OC(F)(F)F)cc3)nc(-c3ccon3)nc2s1 [Example 121, 2-(isoxazol-3-yl)-6-methyl-N-(3-(4-(trifluoromethoxy)phenyl)propyl)thieno[2,3-d]pyrimidin-4-amine]",130
13,"Cc1cc(-c2nc(NCCCc3ccc(OC(F)(F)F)cc3)c3cc(C)sc3n2)no1 [Example 122, 6-methyl-2-(5-methylisoxazol-3-yl)-N-(3-(4-(trifluoromethoxy)phenyl)propyl)thieno [2,3-d]pyrimidin-4-amine]",190
14,"Cc1cc2c(NCCCc3ccc(OC(F)(F)F)cc3)nc(-c3ccccn3)nc2s1 [Example 123, 6-methyl-2-(pyridin-2-yl)-N-(3-(4-(trifluoromethoxy)phenyl)propyl)thieno [2,3-d]pyrimidin-4-amine]",1800
15,"CSc1nc(NCCCc2ccc(OC(F)(F)F)cc2)c2cc(C)sc2n1 [Example 124, 6-methyl-2-(methylthio)-N-(3-(4-(trifluoromethoxy)phenyl)propyl) thieno[2,3-d]pyrimidin-4-amine]",62
16,"Cc1cc2c(NCCCc3ccc(OC(F)(F)F)cc3)nc(-c3cnsc3)nc2s1 [Example 125, 2-(isothiazol-4-yl)-6-methyl-N-(3-(4-(trifluoromethoxy)phenyl)propyl)thieno [2,3-d]pyrimidin-4-amine]",610
17,"Cc1cc2c(NCCCc3ccccc3)nc(-c3ccc(F)cc3)nc2s1 [Example 126, 2-(4-fluorophenyl)-6-methyl-N-(3-phenylpropyl)thieno [2,3-d]pyrimidin-4-amine]",2600
18,"CCc1nc(NCCc2ccc(Cl)c(Cl)c2)c2cc(C)sc2n1 [Example 127, N-(3,4-dichlorophenethyl)-2-ethyl-6-methylthieno[2,3-d]pyrimidin-4-amine]",2800
19,"Cc1cc2c(NCCCc3ccccc3)nc(-c3cscn3)nc2s1 [Example 128, 6-methyl-N-(3-phenylpropyl)-2-(thiazol-4-yl)thieno[2,3-d]pyrimidin-4-amine]",660
20,"Cc1cc2c(NCCCc3ccccc3)nc(-c3nnc[nH]3)nc2s1 [Example 129, 6-methyl-N-(3-phenylpropyl)-2-(4H-1,2,4-triazol-3-yl)thieno[2,3-d]pyrimidin-4-amine]",5600
21,"Cc1cc2c(NCCCc3ccccc3)nc(-c3cn[nH]c3)nc2s1 [Example 130, 6-methyl-N-(3-phenylpropyl)-2-(1H-pyrazol-4-yl)thieno[2,3-d]pyrimidin-4-amine]",2200
